Where two headings read alike, the source gives them in different places.
Legend:
[1] = target: T1, human histamine H4 receptor (Homo sapiens, UniProt Q9H3N8); assay: Binding assay on recombinant human histamine H4 receptor
T1 construct: expressed in transfected cells; host or cells: SK-N-MC or COS7 cells, transiently transfected with pH4R; cell membranes

human eosinophils = assay: Inhibition of eosinophil shape change (GAFS); assay type: cell-based; settings: for effect on histamine-induced shape change: H1 or H2 specific antagonist
Experimental: Eosinophil accumulation in sites of allergic reaction is a well-known characteristic of allergic rhinitis and asthma. […] Shape change is a cellular characteristic that precedes eosinophil chemotaxis.
Human granulocytes were isolated from human blood by a Ficoll gradient. The red blood cells were lysed with 5-10× Qiagen lysis buffer at room temperature for 5-7 min. Granulocytes were harvested and washed once with FACS buffer. The cells were resuspended at a density of 2×10^6 cells/mL in reaction buffer. […] Ten minutes later the cells were transferred to ice and fixed with 250 μL of ice-cold fixative buffer (2% formaldehyde) for 1 min.

Mast cells = assay: Mast cell chemotaxis assay; assay type: cell-based; settings: 10 μM Histamine
Experimental: Mast Cell Chemotaxis Assay
Mast cell accumulation in mucosal epithelia is a well-known characteristic of allergic rhinitis and asthma. Transwells (Costar, Cambridge, Mass.) of a pore size 8 μm were coated with 100 μL of 100 ng/mL human fibronectin (Sigma) for 2 h at room temperature. […] Mast cells (2×10^5/well) were added to the top chamber. The plates were incubated for 3 h at 37° C. Transwells were removed and the cells in the bottom chamber were counted for sixty seconds using a flow cytometer.

[2] = 3H-histamine competition, membranes of SK-N-MC or COS7 cells expressing human H4, read-out: Ki
[3] = repeated in the chemotaxis table, read-out: Binding Assay Ki
[4] = Histamine 0 μM, 10 μM HR antagonist
[5] = Histamine 0.01 μM, 10 μM HR antagonist
[6] = Histamine 0.1 μM, 10 μM HR antagonist
[7] = Histamine 1 μM, 10 μM HR antagonist
[8] = Histamine 10 μM, 10 μM HR antagonist

T1 sequence (Q9H3N8 whole entry): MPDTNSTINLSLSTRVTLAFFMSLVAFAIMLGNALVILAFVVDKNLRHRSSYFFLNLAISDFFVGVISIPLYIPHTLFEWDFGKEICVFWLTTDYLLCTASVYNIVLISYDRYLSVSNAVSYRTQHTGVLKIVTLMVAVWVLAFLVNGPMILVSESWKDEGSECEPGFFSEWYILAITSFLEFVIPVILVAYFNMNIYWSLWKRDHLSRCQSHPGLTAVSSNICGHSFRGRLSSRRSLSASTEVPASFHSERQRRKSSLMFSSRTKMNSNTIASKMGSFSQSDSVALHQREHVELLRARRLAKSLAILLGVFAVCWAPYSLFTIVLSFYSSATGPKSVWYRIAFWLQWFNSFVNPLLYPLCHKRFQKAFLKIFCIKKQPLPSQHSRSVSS

`CN1CCN(C(=O)c2cc3c(Cl)c(Cl)sc3[nH]2)CC1` [Example 17, (2,3-Dichloro-6H-thieno[2,3-b]pyrrol-5-yl)-(4-methyl-piperazin-1-yl)-methanone] showed a Ki [1, 2] of 0.01 µM.

Compound `CN1CCN(C(=O)c2cc3sccc3[nH]2)CC1` [Example 7, (4-Methyl-piperazin-1-yl)-(4H-thieno[3,2-b]pyrrol-5-yl)-methanone] has a Ki [1, 2] of 0.125 µM.

With `CC1CN(C(=O)c2cc3sccc3[nH]2)CCN1` (stereo not shown) [Example 9, (3-Methyl-piperazin-1-yl)-(4H-thieno[3,2-b]pyrrol-5-yl)-methanone] the Ki [1, 2] was 0.733 µM.

In the case of `Cc1csc2cc(C(=O)N3CCNCC3)[nH]c12` [Example 21, (3-Methyl-4H-thieno[3,2-b]pyrrol-5-yl)-piperazin-1-yl-methanone], the Ki [1, 2] is reported as 0.08 µM.

`NCCc1c[nH]cn1` [Histamine, histamine] was tested, and the “Fold Change” value (human eosinophils; Histamine 0.01 μM, No HR Antagonist) was 1.01, the “Fold Change” value (human eosinophils; Histamine 0.1 μM, No HR Antagonist) was 1.21 and the “Fold Change” value (human eosinophils; Histamine 1 μM, No HR Antagonist) was 1.31. For the same compound, the “Fold Change” value (human eosinophils; Histamine 10 μM, No HR Antagonist) was 1.34 and the “shape change in eosinophils” value (human eosinophils; histamine alone) was “induces a dose-dependent shape change”.

In the case of `O=C(c1cc2cc(Cl)sc2[nH]1)N1CCN2CCCC2C1` (stereo not shown) [Example 4, (2-Chloro-6H-thieno[2,3-b]pyrrol-5-yl)-(hexahydro-pyrrolo[1,2-a]pyrazin-2-yl)-methanone], the Ki [1, 2] is reported as 0.176 µM, the Ki [1, 3] is reported as 0.176 µM and the “% Inh” value (Mast cells; HR Antagonist 1 μM) is reported as less than 5%. The “% Inh” value (Mast cells; HR Antagonist 10 μM) was less than 5%.

`Cc1cc2[nH]c(C(=O)N3CCN(C)CC3)cc2o1` [Example 14, (2-Methyl-4H-furo[3,2-b]pyrrol-5-yl)-(4-methyl-piperazin-1-yl)-methanone] was tested, and the Ki [1, 2] was 0.343 µM.

`O=C(c1cc2sccc2[nH]1)N1CCNCC1` [Example 8, Piperazin-1-yl-(4H-thieno[3,2-b]pyrrol-5-yl)-methanone] gave a Ki [1, 2] of 0.343 µM.

`CN(C)CCOC(c1ccccc1)c1ccccc1` [diphenhydramine] was tested, and the “effect on histamine-induced shape change” value (human eosinophils) was “did not alter”, the “Fold Change” value (human eosinophils; [4]) was 1.00 and the “Fold Change” value (human eosinophils; [5]) was 1.03. For the same compound, the “Fold Change” value (human eosinophils; [6]) was 1.18, the “Fold Change” value (human eosinophils; [7]) was 1.50 and the “Fold Change” value (human eosinophils; [8]) was 1.63.

`Cc1c(Cl)sc2cc(C(=O)N3CCNCC3)[nH]c12` [Example 24, (2-Chloro-3-methyl-4H-thieno[3,2-b]pyrrol-5-yl)-piperazin-1-yl-methanone] was tested, and the Ki [1, 2] was 0.03 µM.

`Cc1oc2cc(C(=O)N3CCN(C)CC3)[nH]c2c1C` [Example 15, (2,3-Dimethyl-4H-furo[3,2-b]pyrrol-5-yl)-(4-methyl-piperazin-1-yl)-methanone] gave a Ki [1, 2] of 0.14 µM.

Work on `CN1CCN(C(=O)c2cc3ccsc3[nH]2)CC1` [Example 1, (4-Methyl-piperazin-1-yl)-(6H-thieno[2,3-b]pyrrol-5-yl)-methanone] yielded a Ki [1, 2] of 0.085 µM.

`O=C(c1cc2sc(Cl)cc2[nH]1)N1CCN2CCCC2C1` (stereo not shown) [Example 11, (2-Chloro-4H-thieno[3,2-b]pyrrol-5-yl)-(hexahydro-pyrrolo[1,2-a]pyrazin-2-yl)-methanone] gave a Ki [1, 2] of 0.715 µM.

In the case of `O=C(c1cc2ccsc2[nH]1)N1CCN2CCCC2C1` (stereo not shown) [Example 2, (Hexahydro-pyrrolo[1,2-a]pyrazin-2-yl)-(6H-thieno[2,3-b]pyrrol-5-yl)-methanone], the Ki [1, 2] is reported as 0.461 µM.

Compound `O=C(c1cc2cc(Cl)sc2[nH]1)N1CCNCC1` [Example 5, (2-Chloro-6H-thieno[2,3-b]pyrrol-5-yl)-piperazin-1-yl-methanone] has a Ki [1, 2] of 0.056 µM.

For `O=C(c1cc2scc(Br)c2[nH]1)N1CCNCC1` [Example 19, (3-Bromo-4H-thieno[3,2-b]pyrrol-5-yl)-piperazin-1-yl-methanone], the Ki [1, 2] was 0.41 µM.

For `Cc1csc2cc(C(=O)N3CCNC(C)C3)[nH]c12` (stereo not shown) [Example 22, (3-Methyl-piperazin-1-yl)-(3-methyl-4H-thieno[3,2-b]pyrrol-5-yl)-methanone], the Ki [1, 2] was 0.161 µM.

In the case of `Cc1sc2cc(C(=O)N3CCN(C)CC3)[nH]c2c1C` [Example 16, (2,3-Dimethyl-4H-thieno[3,2-b]pyrrol-5-yl)-(4-methyl-piperazin-1-yl)-methanone], the Ki [1, 2] is reported as 0.005 µM.

With `CNC(=C[N+](=O)[O-])NCCSCc1ccc(CN(C)C)o1` [ranatidine] the “effect on histamine-induced shape change” value (human eosinophils) was “did not alter”, the “Fold Change” value (human eosinophils; [4]) was 1.00 and the “Fold Change” value (human eosinophils; [5]) was 1.04. For the same compound, the “Fold Change” value (human eosinophils; [6]) was 1.21, the “Fold Change” value (human eosinophils; [7]) was 1.49 and the “Fold Change” value (human eosinophils; [8]) was 1.64.

Compound `CN1CCN(C(=O)c2cc3scc(Br)c3[nH]2)CC1` [Example 12, (3-Bromo-4H-thieno[3,2-b]pyrrol-5-yl)-(4-methyl-piperazin-1-yl)-methanone] has a Ki [1, 2] of 0.056 µM.

`Cc1c(Cl)sc2cc(C(=O)N3CCN(C)CC3)[nH]c12` [Example 23, (2-Chloro-3-methyl-4H-thieno[3,2-b]pyrrol-5-yl)-(4-methyl-piperazin-1-yl)-methanone] showed a Ki [1, 2] of 0.003 µM.

With `CN1CCN(C(=O)c2cc3sc(Cl)c(Cl)c3[nH]2)CC1` [Example 25, (2,3-Dichloro-4H-thieno[3,2-b]pyrrol-5-yl)-(4-methyl-piperazin-1-yl)-methanone] the Ki [1, 2] was 0.0055 µM.

For `Cc1csc2cc(C(=O)N3CCN(C)CC3)[nH]c12` [Example 13, (4-Methyl-piperazin-1-yl)-(3-methyl-4H-thieno[3,2-b]pyrrol-5-yl)-methanone], the Ki [1, 2] was 0.021 µM, the Ki [1, 3] was 0.021 µM and the “% Inh” value (Mast cells; HR Antagonist 1 μM) was 60%.

`CN1CCN(C(=O)c2cc3cc(Cl)sc3[nH]2)CC1` [Example 3, (2-Chloro-6H-thieno[2,3-b]pyrrol-5-yl)-(4-methyl-piperazin-1-yl)-methanone] gave a Ki [1, 2] of 0.025 µM and a Ki [1, 3] of 0.025 µM.

Work on `Cc1cc2[nH]c(C(=O)N3CCNCC3)cc2o1` [Example 18, (2-Methyl-4H-furo[3,2-b]pyrrol-5-yl)-piperazin-1-yl-methanone] yielded a Ki [1, 2] of 0.77 µM.

`CN1CCN(C(=O)c2cc3occc3[nH]2)CC1` [Example 6, (4H-Furo[3,2-b]pyrrol-5-yl)-(4-methyl-piperazin-1-yl)-methanone] was tested, and the Ki [1, 2] was 0.84 µM.

In the case of `CC1CN(C(=O)c2cc3scc(Br)c3[nH]2)CCN1` (stereo not shown) [Example 20, (3-Bromo-4H-thieno[3,2-b]pyrrol-5-yl)-(3-methyl-piperazin-1-yl)-methanone], the Ki [1, 2] is reported as 0.98 µM, the Ki [1, 3] is reported as 0.98 µM and the “% Inh” value (Mast cells; HR Antagonist 1 μM) is reported as less than 5%. For the same compound, the “% Inh” value (Mast cells; HR Antagonist 10 μM) was less than 5%.

`CN1CCN(C(=O)c2cc3sc(Cl)cc3[nH]2)CC1` [Example 10, (2-Chloro-4H-thieno[3,2-b]pyrrol-5-yl)-(4-methyl-piperazin-1-yl)-methanone] was tested, and the Ki [1, 2] was 0.04 µM and the Ki [1, 3] was 0.04 µM.

From patent US7645758B2, “Heterocyclic compounds” (Janssen Pharmaceutica, N.Y., priority 2002, dated 2010)
